Source: patent US10980754B2, “Anti-fungal compounds” (SAINT LOUIS UNIVERSITY, priority 2016, dated 2021)
Values after ≈ are worked out from the molar mass of the structure shown. “Also recorded” adds a separate entry of the source.

Assays:
C. neoformans = test: Fungicidal assay; type: cell-based; details: 48 hours exposure at 2×, 4× and 8× the MIC, spotted, 30° C. for 2 days
Experimental: To test for fungicidal activity, aliquots of cells were removed after 48 hours of growth in the presence of test compounds at 2×, 4×, and 8× the respective MICs and spotted them on YPD plates. The plates were incubated at 30° C. for 2 days and checked for growth. Growth of cells treated with test compounds was compared to FLC-treated cells, which is known to be fungistatic and to AMB-treated cells, which is known to be fungicidal (Klepser, et al., 1998; Mesa-Arango, et al., 2014).
compounds #54 and #284 were evaluated for fungicidal versus fungistatic activity. This analysis was done in a qualitative assay in parallel with FLC, which is known to be fungistatic (Klepser, et al., 1998) and AMB, which is known to be fungicidal (Mesa-Arango, et al., 2014). The MICs were 3 μM (0.9 μg/mL), 1.5 μM (1.4 μg/mL), 12 μM and 0.31 μM for FLC, AMB, #54 and #284 respectively. (FIGS. 8A & 8B).

[1] = tested on: C. neoformans var grubii, KN99; test: Inhibition of C. neoformans growth, limiting dilution assay (MIC); type: cell-based; details: for MIC80: KN99α, minimal concentration inhibiting 80% of growth relative to vehicle; for inhibition of C. neoformans growth: YNB-02+1% DMSO at 35° C., at 15 and 60 μM; for activity against C. neoformans (in words): MIC assay
Experimental: Strains and media. All inhibition assays were performed with C. neoformans var grubii, KN99 (serotype A, MATα; kindly provided by Jennifer Lodge). Two clinical strains of C. neoformans var grubii, serotype A, were kindly provided by Tamara Doering and Andre Spec. […] Each assay was done in triplicate and all values are the average of two or more independent assays. The data are presented as the average cell density as a percent of DMSO-only treated cells. […] However, these conditions are unlike conditions encountered by C. neoformans in mammalian infections, where nutrients are limited, and the pH and temperature are higher than in YPD media. The cryptococcal stress response to low glucose and high pH and temperature may alter its susceptibility to the inhibitors. It is also possible that the enzymes targeted by the inhibitors may render the cell temperature sensitive when inhibited. To better mimic growth in mammals, growth was tested without shaking in nutrient-limited media at 35° C. […] However, as the nutrient-limited media and higher temperature is more similar to mammalian cell growth conditions, these conditions were used for all further assays. […] All values were measured at least two times in independent experiments and the average MIC is reported.

[2] = Cytotoxicity in hepatoma cells (MTS); details: human, HepDES19 cells
Experimental: (§1) HepDES19 cells (1.0×10^4 cells per well) were seeded in 96-well plates and incubated in DMEM with 10% fetal bovine serum (FBS) plus 1% penicillin and streptomycin, 1% nonessential amino acids, and 1% glutamine. The compounds were diluted in the medium at concentrations ranging from 0.78 to 100 μM plus 1% DMSO and added to the cells 48 hours after plating, with each concentration tested in triplicate. Cells were incubated with the compound for 72 hours and cytotoxicity was measured using a mitochondrial metabolic assay with MTS (Promega). The data were transformed to log[inhibitor] and fit to a 4-variable slope curve using GraphPad Prism (v6, www.graphpad.com).
(§2) Three days later, the MTS reagent was added for 90 minutes prior to terminating the incubation period and reading the OD480.

KN99α cells [3] = test: Growth inhibition in YPD+1% DMSO at 25° C.; type: cell-based, C. neoformans; details: at 60 μM
Experimental: FIGS. 5A & 5B. Inhibition of KN99α cells by β-thujaplicinol and β-thujaplicin under conditions (FIG. 5A) YPD at 25° C. and (FIG. 5B) YNB-02 at 35° C.
An assay was developed that could cheaply and reproducibly measure inhibition of C. neoformans growth using a 96-well format. C. neoformans growth was initially tested in YPD versus YPD+1% DMSO at 25° C. with shaking for 24 and 48 hours. […] However, these conditions are unlike conditions encountered by C. neoformans in mammalian infections, where nutrients are limited, and the pH and temperature are higher than in YPD media. The cryptococcal stress response to low glucose and high pH and temperature may alter its susceptibility to the inhibitors. It is also possible that the enzymes targeted by the inhibitors may render the cell temperature sensitive when inhibited. To better mimic growth in mammals, growth was tested without shaking in nutrient-limited media at 35° C. First, the cell culture media, RPMI-1640+0.4% glucose+1% DMSO (Sigma) as defined by National Committee for Clinical Laboratory Standards (NCCLS) was tested for anti-fungal susceptibility testing. However, the cells grew very poorly under these conditions. […] (FIG. 5A). However, as the nutrient-limited media and higher temperature is more similar to mammalian cell growth conditions, these conditions were used for all further assays.

HepDES19 cells = test: Cytotoxicity in hepatoma cells (MTS); details: 72 hours, MTS
Experimental: as §1, §2

[4] = tested on: clinical strains of C. neoformans var grubii, serotype A; test: MIC in two independent clinical strains; type: cell-based; details: Cryptococcus neoformans
Experimental: Strains and media. All inhibition assays were performed with C. neoformans var grubii, KN99 (serotype A, MATα; kindly provided by Jennifer Lodge). Two clinical strains of C. neoformans var grubii, serotype A, were kindly provided by Tamara Doering and Andre Spec. […] Cells were incubated without shaking for 48 hours at 35° C. and cell density was measured at […]. […] Each assay was done in triplicate and all values are the average of two or more independent assays. The data are presented as the average cell density as a percent of DMSO-only treated cells. MICs are reported as the minimal concentration needed to inhibit 80% of C. neoformans growth relative to vehicle-treated controls. Another thirty-seven of the molecules are αHTs (FIG. 4), which have a third contiguous oxygen atom on the troponoid ring.

KN99α cells [5] = test: Inhibition under capsule-inducing conditions (MIC); type: cell-based; details: Cryptococcus neoformans; YNB-02+1% DMSO, 37° C. with 5% CO2, 48 hours
Experimental: KN99α cells were grown overnight in YPD at 30° C. with shaking. […] Capsule was visualized using bright-field microscopy as a halo surrounding the yeast cell through India ink exclusion. The screening was conducted in the nutrient-limited media YNB-02 at 35° C. to mimic some aspects of the growth conditions in humans. […] The untreated cells grown in YNB-02 were able to elaborate the capsule (FIG. 7D) compared to cells grown overnight in YPD at 30° C. (FIG. 7C).

[6] = tested on: C. neoformans var grubii, KN99; test: Synergy (checkerboard) assay with Fluconazole or Amphotericin B; type: cell-based; details: in combination with either FLC or AMB
Experimental: Each assay was performed in triplicate and all values are the average of two or more independent assays. The fractional inhibitory concentration index (FICI) model is expressed as ΣFIC=FICA+FICB=MICA′/MICA+MICB′/MICB, where MICA, and MICB are the MIC values of agents A and B used alone and MICA′ and MICB′ are the MICs of agents A and B used in combination.

Wild-type KN99α = test: Screening of 1-Hydroxy-1,8-naphthyridin-2(1H)-one (HNO) compounds for growth inhibition; type: cell-based, C. neoformans; details: Cryptococcus neoformans; growth inhibited >80%
Experimental: FIG. 1. Results from screening 8 napthyridinone derivatives. Wild-type KN99α at a starting density of 0.0005 was treated with the compounds at 4 μM, 15 μM, and 60 μM in nutrient-limiting media (YNB, pH 7)+1% DMSO at 35° C. for 48 hours. Bars represent the average cell density of at least three replicates as percent of untreated cells.
Eight compounds in the 1-Hydroxy-1,8-naphthyridin-2(1H)-one (HNO) chemical family were also tested. Three compounds, #149, #153 and #154, inhibited growth of C. neoformans >80% with MICs of ˜10 μM, ˜4 μM and ˜20 μM respectively.

KN99α cells [7] = test: MIC assays of hydrolysis products of #284 and p-benzoic acid; type: cell-based, C. neoformans; details: dilution series 0.19-50 μM, 48 hours at 35° C.
Experimental: FIG. 6. […] Values are mean±standard deviation from three replicates.
The solution was mixed by vortexing until a prominent color change (pale yellow to dark orange) was apparent. This reaction was performed in triplicate. One aliquot of the reaction mixture was stored at room temperature, one at 35° C., and one at 40° C. After 24 hours, the reaction mixtures were neutralized with HCl.
This would release a tropothione, possibly in multiple oxidation states, as well as p-benzoic acid, any of which could potentially act as inhibitors.

[8] = Cryptococcus neoformans, YNB-02+1% DMSO, 35° C., 48 hours
[9] = CC50, HepDES19 cells, 72 hours, MTS
[10] = YNB-02+1% DMSO, 35° C., 48 hours
[11] = Cryptococcus neoformans, 48 h, measured alone, 80% of cells inhibited relative to vehicle, run with synergy and fungicidal assays
[12] = Cryptococcus neoformans, Table 3, similar methods to Table 2
[13] = CC50, Table 3, similar methods to Table 2

C[C@@H]1[C@H](O)[C@@H](C)/C=C/C=C/C=C/C=C/C=C/C=C/C=C/[C@H](O[C@@H]2O[C@H](C)[C@@H](O)[C@H](N)[C@@H]2O)C[C@@H]2O[C@](O)(C[C@@H](O)C[C@@H](O)[C@H](O)CC[C@@H](O)C[C@@H](O)CC(=O)O[C@H]1C)C[C@H](O)[C@H]2C(=O)O [AMB, Amphotericin B]
cell growth on YPD plates after drug exposure (C. neoformans): no cell growth

CC(C)c1ccc(O)c(=O)c(O)c1 [Compound 46, β-thujaplicinol]
MIC80 [1, 8]: 8 µM (≈ 1.44 µg/mL) | MIC [1, 8]: ≤ 15 µM | inhibition of C. neoformans growth [1]: some inhibition | CC50 at 72 h [2, 9]: 23 µM | inhibition of C. neoformans growth (KN99α cells [3]): almost completely inhibited

CC(C)c1cccc(=O)c(O)c1 [Compound 47, β-thujaplicin]
MIC80 [1, 8]: 21 µM (≈ 3.45 µg/mL) | inhibition of C. neoformans growth [1]: some inhibition | CC50 at 72 h [2, 9]: 66.5 µM | inhibition of C. neoformans growth (KN99α cells [3]): almost completely inhibited

O=Nc1ccc(O)c(=O)cc1 [Compound 50, 5-nitrosotropolone]
MIC80 [1, 10]: 24 µM (≈ 3.63 µg/mL) | CC50 (HepDES19 cells): 17.5 µM

O=c1ccccc(Br)c1O [Compound 54, 3-bromotropolone]
MIC [1, 11]: 12 µM | MIC80 [1, 8]: 7 µM (≈ 1.41 µg/mL) | CC50 at 72 h [2, 9]: 95 µM | MIC [4]: 6 to 12 µM (≈ 1.21 to 2.41 µg/mL) | MIC (KN99α cells [5]): 6 to 12 µM (≈ 1.21 to 2.41 µg/mL) | FIC index [6]: 2 | FIC value [6]: 1

O=c1cc(Cc2ccc(Br)cc2)c2cccnc2n1O [Compound 149]
MIC (Wild-type KN99α): ~10 µM (≈ 3.31 µg/mL)

NCc1cccc(-c2ccc(Cc3cc(=O)n(O)c4ncccc34)cc2)c1 [Compound 153]
MIC (Wild-type KN99α): ~4 µM (≈ 1.43 µg/mL)

O=c1cc(-c2ccccc2)c2cccnc2n1O [Compound 154]
MIC (Wild-type KN99α): ~20 µM (≈ 4.76 µg/mL)

O=C(Oc1cccccc1=O)c1ccccc1Cl [Compound 282]
MIC80 [1, 8]: 36 µM (≈ 9.38 µg/mL) | CC50 (HepDES19 cells): 96.5 µM

Cc1cc(O)c(=O)c(O)cc1C(=O)c1ccc2ccccc2c1 [Compound 315, 4-(2-naphthoyl)-2,7-dihydroxy-5-methylcyclohepta-2,4,6-trien-1-one]
MIC80 [1, 8]: 24 µM (≈ 7.35 µg/mL) | CC50 at 72 h [2, 9]: 17 µM

COc1cc(C)c(C(=O)c2ccccc2)c(C(=O)c2ccccc2)c(O)c1=O [Compound 317, (7-hydroxy-5-methoxy-3-methyl-6-oxocyclohepta-2,4,7-triene-1,2-diyl) bis (phenyl methanone)]
MIC80 [1, 8]: 50 µM (≈ 18.7 µg/mL) | activity against C. neoformans (in words) [1]: little activity; also recorded: no activity | CC50 at 72 h [2, 9]: > 100 µM

Cc1cc(O)c(=O)c(O)cc1C(=O)O [Compound 319, 4,6-dihydroxy-2-methyl-5-oxocyclohepta-1,3,6-triene-1-carboxylic Acid]
MIC80 [1, 8]: 50 µM (≈ 9.81 µg/mL) | MIC [1, 8]: ≥ 50 µM | CC50 at 72 h [2, 9]: > 100 µM

O=C(Sc1cccccc1=O)c1ccccc1 [Compound 364]
MIC [1, 12]: 0.2 µM | CC50 at 72 h [2, 13]: 46 µM

Cc1ccc(CSc2cccccc2=O)cc1 [Compound 365]
MIC [1, 12]: > 50 µM | CC50 at 72 h [2, 13]: > 100 µM

OC(Cn1cncn1)(Cn1cncn1)c1ccc(F)cc1F [FLC, Fluconazole, reference compound]
MIC [1, 11]: 3 µM | MIC ([1]; Cryptococcus neoformans, measured alone, 80% of cells inhibited relative to vehicle, run with synergy and fungicidal assays): 0.9 mg/L | cell growth on YPD plates after drug exposure (C. neoformans): Significant cell growth

Purpurogallin [Compound 195]
MIC80 [1, 10]: 50 µM | activity against C. neoformans (in words) [1]: largely ineffective | CC50 (HepDES19 cells): 92 µM

p-benzoic acid
MIC (KN99α cells [7]): > 50 µM
